# Results reported in the METLIN SMRT retention time set (Domingo-Almenara et al. 2019).
# Experiment: gradient 5% acetonitrile 3 min, to 50% in 2 min, to 85% in 15 min, held 3 min, 100 µL/min
# Settings: column: Zorbax Extend-C18 2.1 x 50 mm; eluents: water / acetonitrile, 0.1% formic acid
# In short: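 Mixtures of ~100 pure standards were chromatographed on a Zorbax Extend-C18 column (2.1 × 50 mm, 1.8 μm) at 100 μL/min using water and acetonitrile, each with 0.1% formic acid. Detection used a quadrupole time-of-flight mass spectrometer in positive and negative ionization mode, and data collection spanned 3 months. Retention time was obtained from adduct peaks picked computationally and each checked manually.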
row,Compound,RP-LC retention time [s]
1,Cc1cc(C)cc(N2CCC(NC(=O)Nc3ccccc3Cl)C2=O)c1 (stereo not given),936
2,CCCC(=O)Nc1nc(-c2ccc3c(c2)NC(=O)C(C)O3)c(C)s1 (stereo not given),812
3,CCn1cc(CCNC(=O)Cc2cccs2)c2cccnc21,651
4,O=C(NCCc1csc2nc(-c3cccs3)nn12)c1ccc(Br)o1,769
5,O=S(=O)(NC1CCCCC1)c1ccc(-c2nnc(C3CCCC3)o2)o1,1020
6,Cc1ccc(NC(=O)Nc2ccc(NC(=O)N3CCCC(C(=O)NCC4CC4)C3)cc2)cc1 (stereo not given),779
7,O=C(Nc1ccc(Cl)c(Cl)c1)Nc1nc(-c2ccccc2)cs1,1220
8,Cn1c(=O)n(C2CCCN(C(=O)Cc3ccccc3)C2)c2ncncc21 (stereo not given),668
9,CCn1ccc(C(=O)N2CCN(c3cc(-c4ccc(Cl)cc4)[nH]n3)CC2)n1,827
10,Cc1ccc(NC(=O)Nc2nc(C(=O)N3CCN(C(=O)c4ccco4)CC3)cs2)cc1,704
11,O=C1/C(=C/c2ccsc2)CC/C1=C\c1cccs1,1280
12,O=C(NC1CC1)c1nc(C(=O)N2CCC3(CC2)OCCO3)cs1,649
13,CC1CCN(C(=O)CCC(=O)N2CCCN(c3nc4cccnc4s3)CC2)CC1,698
14,O=C(Nc1ccccc1C(F)(F)F)N1CCC(n2cnnc2C2CC2)C1 (stereo not given),640
15,COc1ccccc1CNC(=O)C1CCCN(c2nn3c(=O)c4c(nc3s2)CCCC4)C1 (stereo not given),737
16,Cc1ccc(C)c(NC(=O)C2CCN(S(=O)(=O)c3ccc4c(c3)NC(=O)C(C)O4)CC2)c1 (stereo not given),824
17,O=C(NCC1(O)CCCC1)C1CC(=O)N(c2ccccc2)C1 (stereo not given),624
18,COc1cc(NC(=O)Cn2nc3n(c2=O)CCCCC3)cc(OC)c1,704
19,Cn1ncc2c3ccccc3n(CCCC(=O)NC3CCN(Cc4ccccc4)CC3)c2c1=O,655
20,Cc1cn(C)c(CC(=O)NCCCN2CCCC(C)C2)c1C(=O)O (stereo not given),586
21,COc1ccc(CN2CCC([C@@H]3CNC[C@H]3CO)CC2)c(OC)c1,549
22,CN1C(=O)c2cc(C(=O)NCc3ccccc3F)nn2CC1(C)C(=O)NC1CCCCC1 (stereo not given),785
23,CN1CCN(C(CNS(=O)(=O)c2cc(F)ccc2F)c2cccn2C)CC1 (stereo not given),580

row,Compound,RP-LC retention time [s]
1,COc1ccc(NC(=O)C2CCN(S(=O)(=O)c3cc(C(=O)N4CCOCC4)cs3)CC2)cc1,721
2,COc1c(NC(C)=O)c2ccccc2c2ccccc12,830
3,CC(C)C(=O)NCc1csc(C2CCCN(C(=O)CC(C)(C)C)C2)n1 (stereo not given),734
4,NC(=O)C1=C(N)c2ccccc2C1c1ccccc1 (stereo not given),822
5,Cc1nnc(-c2ccc(S(=O)(=O)N3CCOCC3)o2)o1,664
6,CN1CCN(CCCNC(=O)Cn2c3ccccc3c3cnn(C)c(=O)c32)CC1,560
7,CCN1c2ccccc2C(=O)NC12CCN(C(=O)Nc1ccc3c(c1)OCCO3)CC2,737
8,CC12CCC(C(=O)Nc3ccc(Cl)cn3)(OC1=O)C2(C)C (stereo not given),890
9,Cc1ncc2n1CCN(S(=O)(=O)c1ccccc1)C2,584
10,Cc1cc(C)cc(-n2ccnc(NC(=O)Nc3ccc(C)c(F)c3)c2=O)c1,1140
11,CCN1CCN(C(=O)C2CCN(S(=O)(=O)c3ccc4c(c3)sc(=O)n4C(C)C)CC2)CC1,650
12,CCc1ccc(NS(=O)(=O)c2cc3n(c2)CCCN(C)C3=O)cc1,739
13,O=C1C(N2CCN(S(=O)(=O)c3ccc(F)cc3F)CC2)CCN1Cc1cccnc1 (stereo not given),542
14,CCc1noc(CC2CCOC3(CCN(S(=O)(=O)c4ccc(Cl)cc4)CC3)C2)n1 (stereo not given),1070
15,Cc1ccc(-n2cc3c(N4CCCC(C(=O)NC5CCCCCC5)C4)ncnc3n2)cc1 (stereo not given),762
16,CCN(CC)CCNC(=O)CN1N=C(c2ccc(Cl)cc2)CCC1=O,625
17,O=C(c1ccsc1)N1CCC(Nc2ncnc3c2CCC3)CC1,581
18,CCOC(=O)C(C)Sc1nnc(NC(=O)C2CC2)s1 (stereo not given),708
19,CCCN(CCC)S(=O)(=O)c1ccc(C)cc1,1200
20,O=C1CCCc2cc(S(=O)(=O)N3CCC(C(=O)N4CCc5ccccc54)CC3)ccc2N1,802
21,CCn1c(=O)sc2cc(S(=O)(=O)N3CCC(C(=O)Nc4cccc(SC)c4)CC3)ccc21,975
22,O=C(c1cnn2cccnc12)N1CCCC1c1ccccc1Cl (stereo not given),763
23,O=C(NCc1ccc2c(c1)OCO2)C1CCN(C(=O)c2ccccc2)CC1,706

# Next, values leading:
row,RP-LC retention time [s],Compound
1,806,COc1cccc(CNC(=O)Cn2c(=O)cc(-c3nc(C)no3)c3ccccc32)c1
2,654,CCCN1CCN(c2cc(C(=O)O)c3cc(NC(=O)c4cccc(Cl)c4)ccc3n2)CC1
3,1040,Cc1noc(C)c1-c1ccc(S(=O)(=O)N2CCc3ccccc32)cc1
4,592,Cc1ccc(-c2nc(CN3CCN(C(=O)NC(C)C)CC3)c(C)o2)cc1
5,781,Cc1ccc2c(c1)NC(=O)C(CC(=O)N1CCN(c3cccc(C)c3C)CC1)CO2 (stereo not given)
6,873,CCN(CC)C(=O)N1CC(Oc2cccc(-c3nc(C)no3)c2)C1
7,659,COC(=O)C(C)NC(=O)N1CCN(c2nc3ccccc3n2Cc2ccccc2)CC1 (stereo not given)
8,1270,CCOc1ccc(C2Cn3nnc(-c4nc(-c5cccc(C)c5)no4)c3CO2)cc1 (stereo not given)
9,1250,COc1cccc(-c2noc(CN3C(=O)COc4ccc(C(C)(C)C)cc43)n2)c1
10,1050,CCn1cc2c3c(cccc31)CN(C(=O)Nc1ccc(Cl)cc1F)CC2
11,707,NC1=NCC2c3ccccc3Cc3ccccc3N12 (stereo not given)
12,874,CCOc1ccc(-n2nnnc2CN2CCN(S(=O)(=O)c3cccs3)CC2)cc1
13,779,Cn1nccc1C(=O)NCc1ccc2c(c1)CCN2C(=O)c1ccc(F)cc1
14,705,CN(C)c1cccc(C(=O)NC2CCN(c3ccc(F)cc3)C2=O)c1 (stereo not given)
15,924,Cc1cccc(NS(=O)(=O)c2ccc(-c3nnc(C4CCC4)o3)o2)c1
16,1080,Cc1ccc(Nc2c(-c3ccc(C(=O)O)cc3)nc3cnccn23)c(Br)c1
17,791,Cc1c(Cl)cccc1NC(=O)N1CCC(n2cnc3ccccc3c2=O)CC1
18,944,CCN1C(=O)c2ccccc2Oc2ccc(C(=O)NCCc3cccs3)cc21
19,843,Cn1c(=O)oc2ccc(C(=O)Nc3nc4ccccc4s3)cc21
20,787,Cc1ccc2nc(NC(=O)C3CC(=O)N(c4n[nH]c5ccccc45)C3)sc2c1 (stereo not given)
21,854,CCn1cc(SCC(=O)NCc2ccc3c(c2)OCO3)c2ccccc21
22,1210,Cc1ccc2c(c1)N(Cc1nc(-c3ccc(OC(F)(F)F)cc3)no1)C(=O)CO2

row,RP-LC retention time [s],Compound
1,800,COc1ccc(NC(=O)Cn2nc(C(=O)N3CCCC3)c3ccccc32)cc1
2,943,CCSc1nnc(-c2nn(C)c3c2CN(S(=O)(=O)c2ccc(F)cc2)CC3)n1CC
3,741,Cc1ccc(Nc2c(-c3ccccc3)nc3cc(C)ccn23)cc1
4,971,CN(CCc1noc(COc2ccc(F)cc2)n1)C(=O)Nc1cccc(Br)c1
5,651,Cc1ccc2nc(Nc3ncc4c(n3)CC(C)CC4=O)nc(C)c2c1 (stereo not given)
6,820,O=C(NCc1ccco1)c1ccc(Cn2nc(N3CCN(c4ccc(F)cc4)CC3)ccc2=O)o1
7,1050,COc1ccc(Cl)cc1N1CC(c2nc(-c3ccc(C)cc3)no2)CC1=O (stereo not given)
8,659,Cc1ccc(-c2cc3c(=O)n(Cc4noc(CN5CCN(C)CC5)n4)ccn3n2)cc1
9,673,CCNC(=O)C1CCCN(c2nc3ncn(CC(=O)Nc4cc(C)ccc4C)c(=O)c3s2)C1 (stereo not given)
10,1020,CCCCn1cc(S(=O)(=O)Nc2cccc(Cl)c2)c2cccnc21
11,790,CCOc1cccc2c1OC1(C)CC2NC(=O)N1c1cccc(C(=O)NCc2cccs2)c1 (stereo not given)
12,1100,CCn1c(=O)c2ccccc2n(Cc2nc(-c3ccc(C)c(C)c3)no2)c1=O
13,742,COc1ccc(F)cc1S(=O)(=O)NCCOc1ccc(-c2ccco2)nn1
14,738,CCN(CC)S(=O)(=O)c1ccc(C(=O)Nc2nc3c(s2)CCc2ccccc2-3)cc1
15,660,CC(C)Oc1ccc(C(=O)Nc2nc(-c3cccnc3)cs2)cc1
16,1130,Cc1ccc(-c2noc(CN3C(=O)COc4cc(C)ccc43)n2)cc1
17,1130,CCCCS(=O)(=O)N1CCc2nc(-c3ccc(Cl)cc3)ncc2C1
18,700,CCNC(=O)CCc1nc2ccccc2n(CC(=O)NCc2ccc(OC)cc2)c1=O
19,756,Cc1csc(-c2ccc(N3CCN(C(=O)c4cccc5[nH]ccc45)CC3)nc2)n1
20,914,Cc1sc(NC(=O)c2ccccc2Cl)nc1-c1ccc2c(c1)NC(=O)C(C)O2 (stereo not given)
21,964,Cc1cc(C(=O)NCc2ccc(C)o2)c2c(C)nn(-c3ccccc3)c2n1
22,824,CSc1nnc(Cn2c(=O)sc3ccccc32)n1-c1cccc(C(F)(F)F)c1
